The values that follow are results of earlier work, collected in patent US8193376B2, “Artemisinin derivatives with natural amino acids, peptides, and amino sugars for the treatment of infection and topical condition in mammals” (Bioderm Research, priority 2007, dated 2012).

One data set relates to malaria. Particulars: relative to artemisinin.
The subject of another data set is nucleic acid synthesis. Conditions: relative to artemisinin.

Turning to `CO[C@H]1O[C@@H]2O[C@@]3(C)CC[C@H]4[C@H](C)CC[C@@H]([C@H]1C)[C@@]24OO3` [Artemether], in the data set with malaria, the “antimalarial potency, times that of artemisinin” value was 6 times. The “ability to inhibit nucleic acid synthesis, times the activity of artemisinin” value with nucleic acid synthesis was 100 times. As to `C[C@H]1[C@H](OC(=O)CCC(=O)O)O[C@@H]2O[C@@]3(C)CC[C@H]4[C@H](C)CC[C@@H]1[C@@]24OO3` [Artesunate], in the data set with malaria, the “antimalarial potency, times that of artemisinin” value is on record as 5.2 times. Also, the “ability to inhibit nucleic acid synthesis, times the activity of artemisinin” value with nucleic acid synthesis is 100 times. Regarding `C[C@H]1[C@@H](O)O[C@@H]2O[C@@]3(C)CC[C@H]4[C@H](C)CC[C@@H]1[C@@]24OO3` [Dihydroartemisinin], the “antimalarial potency higher than that of artemisinin” value in the data set with malaria was 60%. The “ability to inhibit nucleic acid synthesis, times the activity of artemisinin” value with nucleic acid synthesis is 100 times. Take `CCO[C@H]1O[C@@H]2O[C@@]3(C)CC[C@H]4[C@H](C)CC[C@@H]([C@H]1C)[C@@]24OO3` [arteether, Arteether]: in the data set with nucleic acid synthesis, the “ability to inhibit nucleic acid synthesis, times the activity of artemisinin” value was 100 times.

Turning to `CCCOC(=O)OC1O[C@@H]2O[C@@]3(C)CC[C@H]4[C@H](C)CC[C@@H]([C@H]1C)[C@@]24OO3` (some centres unmarked) [propylcarbonate dihydroartemisinin], the “ability to inhibit nucleic acid synthesis, times the activity of artemisinin” value with nucleic acid synthesis is reported as 100 times.
